From PubChem BioAssay (NCI)
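Compound exposure: 48 hours, 5 concentrations, 96-well plates. TGI marks complete inhibition of growth.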

Assays:
Test in all cases: NCI tumour cell line growth inhibition, 48 h
[1] = tested on: COLO 205 colon
[2] = tested on: LXFL 529 NSCLC
[3] = tested on: M14 melanoma
[4] = tested on: M19-MEL melanoma
[5] = tested on: MDA-MB-231 breast
[6] = tested on: MDA-MB-435
[7] = tested on: NCI-H23 lung
[8] = tested on: NCI-H460 lung
[9] = tested on: OVCAR-5 ovarian
[10] = tested on: SK-MEL-5 melanoma

Structure (SMILES)	TGI [1]	TGI [2]	TGI [3]	TGI [4]	TGI [5]	TGI [6]	TGI [7]	TGI [8]	TGI [9]	TGI [10]
CS(=O)(=O)OCCN(CCOS(C)(=O)=O)c1ccc(C=Nc2ccc(-c3csc(COc4ccccc4)n3)cc2)cc1	6.98 µM	25.3 µM	28.1 µM	36 µM	42.7 µM	31.6 µM	14 µM	2.1 µM	12.6 µM	23.9 µM
CN(C)CC1CC/C(=C\c2ccc(Cl)c(Cl)c2)C1=O (stereo unspecified)	> 51.8 µM	27 µM	48.5 µM	> 51.2 µM	–	–	47.3 µM	36.1 µM	> 86.8 µM	> 72.9 µM
CC(=O)N1C/C(=C\c2ccccc2)C(=O)/C(=C/c2ccccc2)C1	33.9 µM	21.6 µM	17.9 µM	10.7 µM	–	–	41.3 µM	40.2 µM	35.7 µM	12.9 µM
O=C(CCc1n[nH]c(=S)o1)Nc1cc(Cl)ccc1Cl	> 100 µM	> 100 µM	> 100 µM	> 100 µM	–	–	> 100 µM	> 100 µM	> 100 µM	> 100 µM
O=P1(NCCCl)OCCCN1CCCl (stereo unspecified)	428 µM	> 500 µM	> 500 µM	440 µM	> 500 µM	> 500 µM	454 µM	448 µM	453 µM	429 µM
NC(N)NCCCc1cn2c(n1)C1CCCN1C(=O)C2Cc1ccccc1 (stereo unspecified)	> 100 µM	> 100 µM	> 100 µM	> 100 µM	–	–	> 100 µM	> 100 µM	> 100 µM	> 100 µM
N#CC(C(=O)CCCC(=O)Nc1ccccc1[N+](=O)[O-])c1c(Cl)cccc1Cl (stereo unspecified)	> 100 µM	> 100 µM	> 100 µM	> 100 µM	–	–	> 100 µM	> 100 µM	> 100 µM	> 100 µM
CC(=O)OCC1C(=O)OCC1C(=O)N1Cc2cc3ccccc3nc2C1 (stereo unspecified)	2.04 µM	5.22 µM	3.67 µM	21.2 µM	19.9 µM	11.9 µM	14.5 µM	28.8 µM	15.8 µM	23.1 µM
CC(=O)C1(O)CC2(c3ccccc3)C(=O)C1(c1ccccc1)C(c1ccccc1)=C2c1ccccc1 (stereo unspecified)	> 100 µM	> 100 µM	> 100 µM	> 100 µM	–	–	> 100 µM	> 100 µM	> 100 µM	> 100 µM
COc1ccc2c(c1)[C@@H](NC(C)=O)CCc1cc(OC)c(OC)c(OC)c1-2	0.02 µM	> 100 µM	> 22.6 µM	> 100 µM	–	0.0244 µM	2.88 µM	> 15.8 µM	> 100 µM	0.0298 µM
O=C(O)/C=C/c1ccc(O)c(O)c1	> 100 µM	> 100 µM	> 100 µM	> 100 µM	–	–	> 100 µM	> 100 µM	> 100 µM	> 100 µM
O=S1OC(c2ccccc2)(c2ccccc2)C(c2ccccc2)(c2ccccc2)O1	> 100 µM	> 100 µM	> 100 µM	> 100 µM	–	–	> 100 µM	> 100 µM	> 100 µM	> 100 µM
C/C(CN1C(=O)c2ccccc2C1=O)=N\NS(=O)(=O)c1ccc2ccccc2c1	> 100 µM	> 100 µM	> 100 µM	> 100 µM	–	–	> 100 µM	> 100 µM	> 100 µM	> 100 µM
